In PubChem BioAssay AID330 (DTP/NCI, 2004):
“And” between values parts separate entries of the source, which are not always exact repeats. Equal entries are not always repeated. Inconclusive results and toxic doses are left out. The calls were made as follows: active = survival T/C of 150% or more; inactive = T/C below 125% in these data.

System: P388 leukemia ip, CD2F1 mice, survival T/C
Test: NCI In Vivo Anticancer Drug Screen. Data for tumor model P388 Leukemia (intraperitoneal) in CD2F1 (CDF1) mice
Details: endpoint: median survival time, higher = longer survival
Procedure, shortened: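 Mice carrying the transplanted tumor received test compound or vehicle. Survival was recorded in each group, and the value is the treated-group measurement divided by that of the vehicle-treated control group.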

[1] = dose: 12.5 mg/kg/injection, schedule: Q01DX009 (ip), vehicle: saline with Tween-80
[2] = dose: 25.0 mg/kg/injection, schedule: Q01DX009 (ip), vehicle: saline with Tween-80
[3] = dose: 50.0 mg/kg/injection, schedule: Q01DX009 (ip), vehicle: saline with Tween-80
[4] = dose: 200.0 mg/kg/injection, schedule: Q01DX009 (ip), vehicle: saline with Tween-80
[5] = dose: 60.0 mg/kg/injection, schedule: Q01DX005 (ip), vehicle: saline with Tween-80
[6] = dose: 120.0 mg/kg/injection, schedule: Q01DX005 (ip), vehicle: saline with Tween-80
[7] = dose: 240.0 mg/kg/injection, schedule: Q01DX005 (ip), vehicle: saline with Tween-80
[8] = dose: 6.25 mg/kg/injection, schedule: Q01DX009 (ip), vehicle: saline with Tween-80
[9] = dose: 100.0 mg/kg/injection, schedule: Q01DX009 (ip), vehicle: saline with Tween-80
[10] = dose: 50.0 mg/kg/injection, schedule: Q01DX005 (ip), vehicle: saline with Tween-80
[11] = dose: 100.0 mg/kg/injection, schedule: Q01DX005 (ip), vehicle: saline with Tween-80
[12] = dose: 200.0 mg/kg/injection, schedule: Q01DX005 (ip), vehicle: saline with Tween-80
[13] = dose: 30.0 mg/kg/injection, schedule: Q01DX005 (ip), vehicle: Klucel (hydroxypropylcellulose) (HPC)
[14] = dose: 120.0 mg/kg/injection, schedule: Q01DX005 (ip), vehicle: Klucel (hydroxypropylcellulose) (HPC)
[15] = dose: 240.0 mg/kg/injection, schedule: Q01DX005 (ip), vehicle: Klucel (hydroxypropylcellulose) (HPC)

Measured: T/C

FP1(c2ccccc2)(c2ccccc2)Nc2cc(C(c3ccccc3)(c3ccccc3)c3ccccc3)ccc2O1
inactive: [1] 104 % of control | [2] 98 % of control | [3] 92 % of control | [4] 95 % of control

CCCCOc1cc2c(cc1C(C)c1ccc(OC)cc1)OCO2 (stereo not drawn)
inactive: dose: 50.0 mg/kg/injection, schedule: Q01DX005 (ip), vehicle: distilled water + alcohol 96 % of control | dose: 100.0 mg/kg/injection, schedule: Q01DX005 (ip), vehicle: distilled water + alcohol 95 % of control | dose: 200.0 mg/kg/injection, schedule: Q01DX005 (ip), vehicle: distilled water + alcohol 96 % of control

CCOC(=O)/C(C#N)=C/Nc1[nH]c(=O)c(C#N)c(-c2ccc(Cl)cc2)c1SC
inactive: [5] 110 % of control | [6] 100 % of control | [7] 108 % of control

O=C1C(C(=NCCO)c2ccccc2)=C(O)c2ccccc21
inactive: dose: 25.0 mg/kg/injection, schedule: Q04DX002 (ip), vehicle: saline with Tween-80 90 % of control | dose: 50.0 mg/kg/injection, schedule: Q04DX002 (ip), vehicle: saline with Tween-80 101 % of control | dose: 100.0 mg/kg/injection, schedule: Q04DX002 (ip), vehicle: saline with Tween-80 89 % of control

NC(C/C=C\Cl)C(=O)O (stereo not drawn)
inactive: dose: 50.0 mg/kg/injection, schedule: Q01DX005 (ip), vehicle: Klucel (hydroxypropylcellulose) (HPC) 102 % of control | dose: 100.0 mg/kg/injection, schedule: Q01DX005 (ip), vehicle: Klucel (hydroxypropylcellulose) (HPC) 98 % of control | dose: 200.0 mg/kg/injection, schedule: Q01DX005 (ip), vehicle: Klucel (hydroxypropylcellulose) (HPC) 110 % of control

CC1(C)OC2C(CO)OC(n3ccc(=O)[nH]c3=O)C2O1 (stereo not drawn)
inactive: [8] 107 % of control | [1] 109 % of control | [2] 100 % of control and 110 % of control and 120 % of control | [3] 108 % of control and 92 % of control and 97 % of control | [9] 90 % of control

O=C(O)c1cccc([N+](=O)[O-])c1C(=O)O
inactive: dose: 25.0 mg/kg/injection, schedule: Q04DX003 (ip), vehicle: saline with Tween-80 103 % of control | dose: 50.0 mg/kg/injection, schedule: Q04DX003 (ip), vehicle: saline with Tween-80 108 % of control | dose: 100.0 mg/kg/injection, schedule: Q04DX003 (ip), vehicle: saline with Tween-80 103 % of control | dose: 200.0 mg/kg/injection, schedule: Q04DX003 (ip), vehicle: saline with Tween-80 94 % of control

CC/C(=C(\CC)c1ccc(OC)cc1)c1ccc(OC)cc1
inactive: dose: 25.0 mg/kg/injection, schedule: Q01DX009 (ip), vehicle: Klucel (hydroxypropylcellulose) (HPC) 107 % of control | dose: 50.0 mg/kg/injection, schedule: Q01DX009 (ip), vehicle: Klucel (hydroxypropylcellulose) (HPC) 105 % of control | [3] 102 % of control | dose: 100.0 mg/kg/injection, schedule: Q01DX009 (ip), vehicle: Klucel (hydroxypropylcellulose) (HPC) 106 % of control | [9] 98 % of control | dose: 200.0 mg/kg/injection, schedule: Q01DX009 (ip), vehicle: Klucel (hydroxypropylcellulose) (HPC) 97 % of control

CCCCCCC(=O)/C=C/c1ccc(OS(=O)(=O)c2ccccc2)cc1
inactive: [3] 105 % of control | [9] 100 % of control | [4] 101 % of control

NC1=NC(c2ccccc2Cl)CC(c2cc3ccccc3o2)=N1 (stereo not drawn)
inactive: dose: 100.0 mg/kg/injection, schedule: Q01DX001 (ip), vehicle: saline with Tween-80 92 % of control | dose: 200.0 mg/kg/injection, schedule: Q01DX001 (ip), vehicle: saline with Tween-80 89 % of control | dose: 400.0 mg/kg/injection, schedule: Q01DX001 (ip), vehicle: saline with Tween-80 100 % of control

N=c1ccc(=Nc2ccc(N)c3c(O)c4ccccc4c(O)c23)c2c(=O)c3ccccc3c(=O)c1=2
inactive: [10] 103 % of control | [11] 94 % of control | [12] 92 % of control

CC(Cc1ccccc1)N(C)C1=C(CCC#N)CC(C(C)(C)C)CC1 (stereo not drawn)
inactive: dose: 50.0 mg/kg/injection, schedule: Q01DX005 (ip), vehicle: saline 100 % of control | dose: 100.0 mg/kg/injection, schedule: Q01DX005 (ip), vehicle: saline 100 % of control

CCOC(=O)C1Cc2nc(N)ncc2C1=O (stereo not drawn)
inactive: dose: 15.0 mg/kg/injection, schedule: Q01DX009 (ip), vehicle: saline with Tween-80 96 % of control | dose: 30.0 mg/kg/injection, schedule: Q01DX009 (ip), vehicle: saline with Tween-80 107 % of control | dose: 60.0 mg/kg/injection, schedule: Q01DX009 (ip), vehicle: saline with Tween-80 114 % of control

Nc1[nH]c(=S)[nH]c(=O)c1NS(=O)(=O)c1ccccc1[N+](=O)[O-]
inactive: [13] 100 % of control and 94 % of control | dose: 60.0 mg/kg/injection, schedule: Q01DX005 (ip), vehicle: Klucel (hydroxypropylcellulose) (HPC) 98 % of control and 100 % of control | [14] 100 % of control and 97 % of control | [15] 100 % of control

COc1cc(OC)c(/C=C\c2ccnc3ccccc23)c(OC)c1
inactive: [3] 97 % of control | [9] 90 % of control | [4] 104 % of control

O=[N+]([O-])c1c(Cl)sc(Cl)c1[N+](=O)[O-]
inactive: dose: 1.56 mg/kg/injection, schedule: Q01DX009 (ip), vehicle: saline with Tween-80 105 % of control | dose: 3.12 mg/kg/injection, schedule: Q01DX009 (ip), vehicle: saline with Tween-80 104 % of control | [8] 87 % of control and 95 % of control | dose: 6.25 mg/kg/injection, schedule: Q04DX003 (ip), vehicle: saline sonified 110 % of control | dose: 12.5 mg/kg/injection, schedule: Q04DX003 (ip), vehicle: saline sonified 100 % of control | dose: 25.0 mg/kg/injection, schedule: Q04DX003 (ip), vehicle: saline sonified 100 % of control

O=C(O)C1OC1C(=O)O (stereo not drawn)
inactive: dose: 75.0 mg/kg/injection, schedule: Q04DX003 (ip), vehicle: saline 100 % of control | dose: 150.0 mg/kg/injection, schedule: Q04DX003 (ip), vehicle: saline 100 % of control | dose: 300.0 mg/kg/injection, schedule: Q04DX003 (ip), vehicle: saline 100 % of control

C[Si](C)(CCl)N[Si](C)(C)CCl
inactive: dose: 50.0 mg/kg/injection, schedule: Q01DX009 (ip), vehicle: suspension in saline 100 % of control | [9] 100 % of control | dose: 100.0 mg/kg/injection, schedule: Q01DX009 (ip), vehicle: suspension in saline 98 % of control | [4] 96 % of control | dose: 200.0 mg/kg/injection, schedule: Q01DX009 (ip), vehicle: suspension in saline 105 % of control | dose: 400.0 mg/kg/injection, schedule: Q01DX009 (ip), vehicle: saline with Tween-80 122 % of control

COc1ccc(-n2c(SCC(=O)NC(=O)Nc3ccccc3)nc3c(Br)cc(Br)cc3c2=O)cc1
inactive: dose: 7.5 mg/kg/injection, schedule: Q01DX005 (ip), vehicle: Klucel (hydroxypropylcellulose) (HPC) 97 % of control | dose: 15.0 mg/kg/injection, schedule: Q01DX005 (ip), vehicle: Klucel (hydroxypropylcellulose) (HPC) 92 % of control | [13] 86 % of control and 94 % of control | [14] 90 % of control | [15] 101 % of control

O=c1[nH]c2cc(Cl)ccc2nc1/C=C(\O)c1ccccc1O
inactive: [5] 86 % of control and 95 % of control | [6] 92 % of control | [7] 89 % of control and 96 % of control

COC(=O)C1(CC(=O)c2ccc(Cl)cc2Cl)NC(=S)NC(=O)C1C#N (stereo not drawn)
inactive: [5] 91 % of control | [6] 92 % of control

N=c1nc(N)nc2c3ccccc3nnn12
inactive: dose: 15.0 mg/kg/injection, schedule: Q01DX005 (ip), vehicle: saline with Tween-80 109 % of control | dose: 30.0 mg/kg/injection, schedule: Q01DX005 (ip), vehicle: saline with Tween-80 109 % of control | [5] 106 % of control and 109 % of control

c1ccc2c(-c3nc4ccccc4c4ccccc34)cccc2c1
inactive: [10] 108 % of control | [11] 108 % of control | [12] 95 % of control
